Several values for one entry are separate records, joined by “and”; a condition that tells them apart may be missing. Equal entries are not always repeated. Structures can show the parent of a compound that is named as a salt.

This test has as its target T1, Full length human TNNI3K (hTNNI3K) (Homo sapiens, UniProt Q59H18).
T1 construct: His-MBP-TEV-Full length human TNNI3K (hTNNI3K); His (N); MBP (N); TEV cleavage site (N); made in house; host or cells: baculovirus system (printed 'Baculokinase system')
T1 sequence (Q59H18 1-835): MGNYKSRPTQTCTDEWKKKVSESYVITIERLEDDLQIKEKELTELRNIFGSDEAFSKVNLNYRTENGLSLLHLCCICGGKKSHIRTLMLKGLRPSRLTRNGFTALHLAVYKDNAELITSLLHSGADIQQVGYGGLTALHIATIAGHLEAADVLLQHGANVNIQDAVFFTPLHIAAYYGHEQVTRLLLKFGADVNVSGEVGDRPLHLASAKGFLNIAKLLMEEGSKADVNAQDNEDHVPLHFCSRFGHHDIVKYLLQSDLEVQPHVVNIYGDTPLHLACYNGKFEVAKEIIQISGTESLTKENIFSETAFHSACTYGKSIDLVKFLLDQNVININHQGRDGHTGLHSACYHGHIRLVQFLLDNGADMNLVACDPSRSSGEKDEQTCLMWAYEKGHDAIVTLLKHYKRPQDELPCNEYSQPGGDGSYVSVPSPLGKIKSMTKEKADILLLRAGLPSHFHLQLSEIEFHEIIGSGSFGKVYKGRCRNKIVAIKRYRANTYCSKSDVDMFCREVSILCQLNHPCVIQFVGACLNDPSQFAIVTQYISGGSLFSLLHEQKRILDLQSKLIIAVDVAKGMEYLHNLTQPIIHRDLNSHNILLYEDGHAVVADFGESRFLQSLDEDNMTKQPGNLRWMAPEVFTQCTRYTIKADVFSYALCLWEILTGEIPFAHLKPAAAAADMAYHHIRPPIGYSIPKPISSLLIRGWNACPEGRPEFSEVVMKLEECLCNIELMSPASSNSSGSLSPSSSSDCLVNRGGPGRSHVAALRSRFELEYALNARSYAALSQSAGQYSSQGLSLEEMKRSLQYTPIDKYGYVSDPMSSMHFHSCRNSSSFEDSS
Description: Fluorescent polarization assay of compound inhibition on hTNNI3K ATP binding (Biological Assay Method I). As to conditions: displacement of fluorescent ligand from hTNNI3K ATP binding pocket; mean of a minimum of 2 experiments; read-out: pXC50 (the source's name) (converted). From the text:
Materials: His-MBP-TEV-Full length human TNNI3K (hTNNI3K) was expressed in Baculokinase system and purified from amylase affinity column followed by Superdex200. The fluorescent ligand 5-({[2-({[3-({4-[(5-hydroxy-2-methylphenyl)amino]-2-pyrimidinyl}amino)phenyl]carbonyl}amino)ethyl]amino}carbonyl)-2-(6-hydroxy-3-oxo-3H-xanthen-9-yl)benzoic acid was used. The preparation of this fluorescent ligand is disclosed in U.S. Provisional Patent Application No. 61/237,815 filed Aug. 28, 2009, the disclosure of which is incorporated by reference herein. The other buffer components, including MgCl2 (Catalog Number M1028), Bis-Tris (Catalog Number B7535), DTT (Catalog Number D9779) and Chaps (Catalog Number C3023) were purchased from Sigma-Aldrich.
Biological Assay Method I:
A fluorescent polarization assay was used to determine does response of compound inhibition on hTNNI3K ATP binding.
Solution 1: Ten (10) mL of a 5 nM 5-({[2-({[3-({4-[(5-hydroxy-2-methylphenyl)amino]-2-pyrimidinyl}amino)phenyl]carbonyl}amino)ethyl]amino}carbonyl)-2-(6-hydroxy-3-oxo-3H-xanthen-9-yl)benzoic acid solution (Solution 1) was prepared by mixing 5 μL of 1M DTT and 80 μL of 10% (w/v) Chaps and 5 μL of a 10 μM 5-({[2-({[3-({4-[(5-hydroxy-2-methylphenyl)amino]-2-pyrimidinyl}amino)phenyl]carbonyl}amino) ethyl]amino}carbonyl)-2-(6-hydroxy-3-oxo-3H-xanthen-9-yl)benzoic acid stock solution into 9910 μL buffer (20 mM Tris, 15 mM MgCl2, pH 7.5). (Stock solution: 10 μM solution of 5-({[2-({[3-({4-[(5-hydroxy-2-methylphenyl)amino]-2-pyrimidinyl}amino)phenyl]carbonyl}amino)ethyl]amino}carbonyl)-2-(6-hydroxy-3-oxo-3H-xanthen-9-yl)benzoic acid in 100% DMSO)
Solution 2 was formed by mixing 53.8 μL of 2.6 μM hTNNI3K with a 6946.2 μL aliquot of Solution 1 (the above 5-({[2-({[3-({4-[(5-hydroxy-2-methylphenyl)amino]-2-pyrimidinyl}amino)phenyl]carbonyl}amino)ethyl]amino}carbonyl)-2-(6-hydroxy-3-oxo-3H-xanthen-9-yl)benzoic acid solution) to make up a 7 mL of mixture of hTNNI3K and 5-({[2-({[3-({4-[(5-hydroxy-2-methylphenyl)amino]-2-pyrimidinyl}amino)phenyl]carbonyl}amino)ethyl]amino}carbonyl)-2-(6-hydroxy-3-oxo-3H-xanthen-9-yl)benzoic acid (Solution 2).
Fifty (50) nL of inhibitors in DMSO (or DMSO controls) were stamped into a 384-well low volume Greiner black plate, followed by addition of 5 μL of Solution 1 to column 18 and 5 μL Solution 2 to columns 1-17 and 19-24 of the plate. The plate was then spun at 500 rpm for 30 seconds and incubated at room temperature for 60 minutes. After that, the fluorescent polarization was measured on Analyst (ex/em: 485/530 nm, Dichroic: 505). For dose response experiments, normalized data were fit by ABASE/XC50 and pXC50=(log((b−y)/(y−a)))/d−log(x), where x is the compound concentration and y is the % activity at specified compound concentration, a is the minimum % activity, b is the maximum % activity, and d is the Hill slope.
The pXC50s are averaged to determine a mean value, for a minimum of 2 experiments.

In the case of `CNS(=O)(=O)c1ccc(OC(C)C(F)(F)F)c(Nc2ncnc3cc(OC)cc(OC)c23)c1` (single isomer, unassigned) [Example 82, 3-{[5,7-bis(methyloxy)-4-quinazolinyl]amino}-N-methyl-4-[(2,2,2-trifluoro-1-methylethyl)oxy]benzenesulfonamide hydrochloride], the IC50 was 0.001 to 0.01 µM.

Regarding `CNS(=O)(=O)c1ccc(N(C)C)c(Nc2ncnc3cc(OC)c(OC)cc23)c1` [Example 1, 3-{[6,7-bis(methyloxy)-4-quinazolinyl]amino}-4-(dimethylamino)-N-methylbenzenesulfonamide hydrochloride], the IC50 is 0.01 to 0.1 µM.

Consider `CNS(=O)(=O)c1ccc(N2CCOCC2)c(Nc2ncnc3cc(OC)c(OC)cc23)c1` [Example 3, 3-{[6,7-bis(methyloxy)-4-quinazolinyl]amino}-N-methyl-4-(4-morpholinyl)benzenesulfonamide trifluoroacetate], for which the IC50 was 0.01 to 0.1 µM and ~0.0794 µM.

As to `CCN(C)c1ccc(S(=O)(=O)NC)cc1Nc1ncnc2cc(OC)c(OC)cc12` [Example 4, 3-{[6,7-bis(methyloxy)-4-quinazolinyl]amino}-4-[ethyl(methyl)amino]-N-methylbenzenesulfonamide], the IC50 is 0.01 to 0.1 µM.

With `CNS(=O)(=O)c1ccc(OC(C)C)c(Nc2ncnc3cc(OC)c(OC)cc23)c1` [Example 5, 3-{[6,7-bis(methyloxy)-4-quinazolinyl]amino}-N-methyl-4-[(1-methylethyl)oxy]benzenesulfonamide], the IC50 is 0.01 to 0.1 µM.

Turning to `CNS(=O)(=O)c1ccc(N(C)C)c(Nc2ncnc3ccc(OC)cc23)c1` [Example 10, 4-(dimethylamino)-N-methyl-3-{[6-(methyloxy)-4-quinazolinyl]amino}benzene sulfonamide trifluoroacetate], the IC50 was 0.01 to 0.1 µM.

Turning to `CNS(=O)(=O)c1ccc(OCC(F)(F)F)c(Nc2ncnc3cc(OC)c(OC)cc23)c1` [Example 11, 3-{[6,7-bis(methyloxy)-4-quinazolinyl]amino}-N-methyl-4-[(2,2,2-trifluoroethyl)oxy]benzenesulfonamide hydrochloride], the IC50 is 0.01 to 0.1 µM.

As for `CNS(=O)(=O)c1ccc(N2CCC(F)(F)CC2)c(Nc2ncnc3cc(OC)c(OC)cc23)c1` [Example 14, 3-{[6,7-bis(methyloxy)-4-quinazolinyl]amino}-4-(4,4-difluoro-1-piperidinyl)-N-methylbenzenesulfonamide trifluoroacetate], the IC50 was 0.01 to 0.1 µM.

Turning to `CNS(=O)(=O)c1ccc(N(C)C)c(Nc2ncnc3cc(OCCCCl)ccc23)c1` [Example 16, 3-({7-[(3-chloropropyl)oxy]-4-quinazolinyl}amino)-4-(dimethylamino)-N-methylbenzenesulfonamide], the IC50 was 0.01 to 0.1 µM.

As to `CNS(=O)(=O)c1ccc(N(C)C)c(Nc2ncnc3cc(OCCOC)c(OCCOC)cc23)c1` [Example 17, 3-[(6,7-bis{[2-(methyloxy)ethyl]oxy}-4-quinazolinyl)amino]-4-(dimethylamino)-N-methylbenzenesulfonamide trifluoroacetate], the IC50 is 0.01 to 0.1 µM.

Consider `CNS(=O)(=O)c1ccc(OC)c(Nc2ncnc3cc(OCCOC)c(OCCOC)cc23)c1` [Example 18, 3-[(6,7-bis{[2-(methyloxy)ethyl]oxy}-4-quinazolinyl)amino]-N-methyl-4-(methyloxy) benzenesulfonamide hydrochloride], for which the IC50 is 0.01 to 0.1 µM.

`CNS(=O)(=O)c1ccc(OCC(F)(F)F)c(Nc2ncnc3cc(OCCOC)c(OCCOC)cc23)c1` [Example 19, 3-[(6,7-bis{[2-(methyloxy)ethyl]oxy}-4-quinazolinyl)amino]-N-methyl-4-[(2,2,2-trifluoroethyl)oxy] benzenesulfonamide]: the IC50 was 0.01 to 0.1 µM.

With `CNS(=O)(=O)c1ccc(SC)c(Nc2ncnc3cc(OCCOC)c(OCCOC)cc23)c1` [Example 20, 3-[(6,7-bis{[2-(methyloxy)ethyl]oxy}-4-quinazolinyl)amino]-N-methyl-4-(methylthio) benzenesulfonamide], the IC50 is 0.01 to 0.1 µM.

As for `CNS(=O)(=O)c1ccc(N2CCC[C@@H]2C(F)(F)F)c(Nc2ncnc3cc(OC)c(OC)cc23)c1` [Example 21, 3-{[6,7-bis(methyloxy)-4-quinazolinyl]amino}-N-methyl-4-[(2R)-2-(trifluoromethyl)-1-pyrrolidinyl] benzenesulfonamide trifluoroacetate], the IC50 is 0.001 to 0.01 µM.

In the case of `CNS(=O)(=O)c1ccc(N2CCC[C@@H]2C(F)(F)F)c(Nc2ncnc3ccc(Cl)cc23)c1` [Example 22, 3-[(6-chloro-4-quinazolinyl)amino]-N-methyl-4-[(2R)-2-(trifluoromethyl)-1-pyrrolidinyl] benzenesulfonamide trifluoroacetate], the IC50 was 0.01 to 0.1 µM.

In the case of `CNS(=O)(=O)c1ccc(N2CCCCC2)c(Nc2ncnc3cc(OC)c(OC)cc23)c1` [Example 25, 3-{[6,7-bis(methyloxy)-4-quinazolinyl]amino}-N-methyl-4-(1-piperidinyl) benzenesulfonamide trifluoroacetate], the IC50 was 0.001 to 0.01 µM.

In the case of `CNS(=O)(=O)c1ccc(N2CCCCC2)c(Nc2ncnc3ccc(Cl)cc23)c1` [Example 26, 3-[(6-chloro-4-quinazolinyl)amino]-N-methyl-4-(1-piperidinyl) benzenesulfonamide trifluoroacetate], the IC50 was 0.01 to 0.1 µM.

Take `CNS(=O)(=O)c1ccc(N2C(C)CCC2C)c(Nc2ncnc3cc(OC)c(OC)cc23)c1` (stereo not drawn) [Example 27, 3-{[6,7-bis(methyloxy)-4-quinazolinyl]amino}-4-(2,5-dimethyl-1-pyrrolidinyl)-N-methylbenzenesulfonamide trifluoroacetate]: the IC50 is 0.001 to 0.01 µM.

Turning to `CNS(=O)(=O)c1ccc(N2C(C)CCC2C)c(Nc2ncnc3ccc(Cl)cc23)c1` (stereo not drawn) [Example 28, 3-[(6-chloro-4-quinazolinyl)amino]-4-(2,5-dimethyl-1-pyrrolidinyl)-N-methylbenzenesulfonamide trifluoroacetate], the IC50 is 0.01 to 0.1 µM.

As to `CNS(=O)(=O)c1cccc(Nc2ncnc3cc(OC)cc(OC)c23)c1` [Example 30, 3-{[5,7-bis(methyloxy)-4-quinazolinyl]amino}-N-methylbenzenesulfonamide hydrochloride], the IC50 was 0.01 to 0.1 µM.

For `CNS(=O)(=O)c1ccc(OCC(F)(F)F)c(Nc2ncnc3cc(OC)cc(OC)c23)c1` [Example 31, 3-{[5,7-bis(methyloxy)-4-quinazolinyl]amino}-N-methyl-4-[(2,2,2-trifluoroethyl)oxy]benzenesulfonamide hydrochloride], the IC50 is 0.001 to 0.01 µM.

Source of the values: patent US8859571B2, “Quinazoline compounds” (GlaxoSmithKline LLC, priority 2009, dated 2014).
